One test has as its system SDH-WT cells. Nature of the test: Cellular / differential toxicity assay (CellTiter-Glo, 3 days). Particulars: Mus musculus, 72 h, toxicity, SDH-WT cells, 3 days, CellTiter-Glo; read-out: EC50 (uM) SDH-WT. The format is cell-based, murine. As for the experimental part:
(§1) Identification of compounds that target specifically SDH-deficient cells was done by screening a library of small-molecule by using a differential toxicity screen with SDHB-proficient vs. SDHB-deficient cells (the […] cells were described in Cardaci 2015).
(§2) Cells Used for the Differential Assays: SDH-WT; SDH-KO-HRAS
(§3) Cell Culture Conditions: • Medium: DMEM-F12 medium+1 mM Glutamine+3% FBS • Plates: 96 well plate—Black, clear flat bottom • Incubation time: 3 days • Compound concentration: 10 point dilution starting from 10 uM to 0.0065 uM or a lower range when needed. • Viability assay at the end of incubation: Celltiter-Glo (CTG) from Promega.
(§4) Protocol: • Day 1: Plate cells in 96 well plate together with the appropriate concentration of compound.
(§5) Incubate for 3 days at 37° C. in 5% CO2 tissue culture incubator. • Day 4: Check viability of cells by adding CTG reagent and read luminescence in plate reader
(§6) SDH-WT and SDH-KO cells were grown in DMEM F12 supplemented with 1 mM Glutamine+3% FBS were treated with different concentrations of the indicated compounds in FIG. 11. Cell viability was determined 72 hours later by CellTiter Glue reagent (Promega), the luminescence was measured with ClarioStar reader (BMG) and the EC50s were calculated by Prism.
(§7) SDH-WT and SDH-KO cells were grown in DMEM F12 supplemented with 1 mM Glutamine+3% FBS were treated with different concentrations of the indicated compounds. Cell viability was determined 72 hours later by CellTiter Glue reagent (Promega), the luminescence was measured with ClarioStar reader (BMG) and the EC50s were calculated by Prism.
(§8) The cells were grown in DMEM F12 supplemented with 1 mM Glutamine+3% FBS were treated with different concentrations of the indicated compounds. Cell viability was determined 72 hours later by CellTiter Glue reagent (Promega), the luminescence was measured with ClarioStar reader (BMG) and the EC50s were calculated by Prism. Murine SDHB-WT/KO, HRAS transformed isogenic pair (FIG. 12A); UOK269, Human Tumor-derived SDHB-deficient RCC in their WT counterpart with re-expression of SDHB (FIG. 12B); and ACHN, RCC cells, and their SDHB-KO (SDHB CRISPRed out) isogenic cells (FIG. 12C).
A general note: Cellular ATP, detected with luciferase, serves as a proxy for viable cell number.

In test [1] the test system is SDH-KO-HRAS cells (SDHB-deficient). Described as above. The format is cell-based, murine. Particulars: Mus musculus, 72 h, toxicity, SDH-KO cells, 3 days, CellTiter-Glo; read-out: EC50 (uM) SDH-KO-HTAS-C17. On the procedure:
as §1, §2, §3, §4, §5, §6, §7, §8

Structures are written as SMILES.

The text below walks through data of patent publication US20230084927A1, “GLUCOSE UPTAKE INHIBITORS AND USES THEREOF” (METABOMED LTD., priority 2019, published 2023).

Take `COc1ccc(CCN(C)c2ncnc3c2sc2nc4c(cc23)COC(C)(C)C4)cc1F` [Compound 100]: the concentration for a half-maximal effect (EC50) in the test on SDH-WT cells is above 10 µM; in test [1] it was 3 to 10 µM.

Consider `CCOC1CCc2nc3sc4c(NCCc5ccc(OC)c(F)c5)ncnc4c3cc2C1` (centres unmarked) [Compound 101], for which the EC50 (in the test on SDH-WT cells; in test [1]) was above 10 µM in each case.

On to `COc1cc(CCNc2ncnc3c2sc2nc4c(cc23)COC(C)(C)C4)cc(OC)c1` [Compound 102], for which the half-maximal effective concentration (EC50) with SDH-WT cells was above 10 µM; in test [1], 3 to 10 µM.

Turning to `COc1cccc(CCNc2ncnc3c2sc2nc4c(cc23)COC(C)(C)C4)c1OC` [Compound 103], the EC50 (with SDH-WT cells; in test [1]) was above 10 µM in each case.

Regarding `COc1ccc(CCNc2ncnc3c2sc2nc(C=C(C)C)c(CCl)cc23)cc1F` [Compound 104], the EC50 was 3 to 10 µM with SDH-WT cells and 1 to 3 µM in test [1].

For the molecule `COc1ccc(C2CCN(c3ncnc4c3sc3nc5c(cc34)COC(C)(C)C5)C2)cc1F` (centres unmarked) [Compound 105], the concentration giving a half-maximal response (EC50) (with SDH-WT cells; in test [1]) was 3 to 10 µM throughout.

For the molecule `COc1ccc(CCNc2ncnc3c2sc2nc4c(cc23)CN(C)CC4)cc1F` [Compound 106, N-(3-Fluoro-4-methoxyphenethyl)-9-methyl-7,8,9,10-tetrahydropyrimido[4′,5′:4,5]-thieno[2,3-b][1,6]naphthyridin-4-amine], the EC50 (with SDH-WT cells; in test [1]) was 3 to 10 µM throughout.

Take `COc1ccc(CCNc2ncnc3c2sc2nc4c(cc23)CCC4)cc1F` [Compound 108, N-(3-Fluoro-4-methoxyphenethyl)-8,9-dihydro-7H-cyclopenta[5′,6′]pyrido-[3′,2′:4,5]thieno[3,2-d]pyrimidin-4-amine]: the EC50 is 1 to 3 µM with SDH-WT cells and above 10 µM in test [1].

Regarding `COc1ccc(CCNc2ncnc3c2sc2nc4c(cc23)CCCC4)cc1F` [Compound 109, N-(3-Fluoro-4-methoxyphenethyl)-7,8,9,10-tetrahydropyrimido[4′,5′:4,5]-thieno[2,3-b]quinolin-4-amine], the concentration for a half-maximal effect (EC50) (in the test on SDH-WT cells; in test [1]) was above 10 µM throughout.

In the case of `COc1ccc(CCNc2ncnc3c2sc2ncccc23)cc1F` [Compound 110], the EC50 is above 10 µM with SDH-WT cells and 1 to 3 µM in test [1].

Turning to `CC1(C)Cc2nc3sc4c(NCCC5CCCCO5)ncnc4c3cc2CO1` (centres unmarked) [Compound 112], the concentration for a half-maximal effect (EC50) was above 10 µM in the test with SDH-WT cells and 3 to 10 µM in test [1].

On to `CC1(C)Cc2nc3sc4c(NCCc5cccc(C(=O)O)c5)ncnc4c3cc2CO1` [Compound 113], for which the EC50 in the test on SDH-WT cells is below 1 µM; in test [1], 3 to 10 µM.

Turning to `CCCOc1ccc(CCNc2ncnc3c2sc2nc4c(cc23)COC(C)(C)C4)cc1OC` [Compound 115], the half-maximal effective concentration (EC50) in the test on SDH-WT cells was 1 to 3 µM; in test [1], 3 to 10 µM.

Take `CC1(C)Cc2nc3sc4c(NCCc5ccc6[nH]ccc6c5)ncnc4c3cc2CO1` [Compound 116]: the values for the EC50 (in the test with SDH-WT cells; in test [1]) were 3 to 10 µM and 1 to 3 µM, respectively.

`COc1cccc(CCNc2ncnc3c2sc2nc4c(cc23)COC(C)(C)C4)c1` [Compound 117]: the EC50 with SDH-WT cells was above 10 µM; in test [1], 3 to 10 µM.

For the molecule `CC1(C)Cc2nc3sc4c(NCCc5ccc(F)c(F)c5)ncnc4c3cc2CO1` [Compound 120], the EC50 (in the test with SDH-WT cells; in test [1]) was above 10 µM each time.

With `COc1cc(CCNc2ncnc3c2sc2nc4c(cc23)COC(C)(C)C4)ccc1F` [Compound 121], the values for the EC50 (in the test on SDH-WT cells; in test [1]) were above 10 µM and 3 to 10 µM, respectively.

As for `COc1ccc(CCNc2ncnc3c2sc2nc4c(cc23)COC(C)(C)C4)cc1F` [Compound 122], the half-maximal effective concentration (EC50) in the test with SDH-WT cells is above 10 µM; in test [1], below 1 µM.

For `CC1(C)Cc2nc3sc4c(NCCc5cncnc5)ncnc4c3cc2CO1` [Compound 123], the 50% effective concentration (EC50) (in the test on SDH-WT cells; in test [1]) was above 10 µM throughout.

As to `CC1(C)Cc2nc3sc4c(NCCc5cccnc5)ncnc4c3cc2CO1` [Compound 124], the EC50 (with SDH-WT cells; in test [1]) was above 10 µM throughout.

Regarding `COc1ccc(CCNc2ncnc3c4c(sc23)=NC2CC(C)(C)OCC2C=4)c(OC)c1` (centres unmarked) [Compound 125], the EC50 with SDH-WT cells was above 10 µM; in test [1], 1 to 3 µM.

In the case of `COc1ccc(CCNc2ncnc3c2sc2ncccc23)cc1OC` [Compound 126], the EC50 in the test with SDH-WT cells was in the range of 3 to 10 µM; in test [1], 1 to 3 µM.

Regarding `CC1(C)Cc2nc3sc4c(NCCc5ccncc5)ncnc4c3cc2CO1` [Compound 127], the EC50 (in the test on SDH-WT cells; in test [1]) was above 10 µM in each case.

Take `COc1ccccc1CCNc1ncnc2c1sc1nc3c(cc12)COC(C)(C)C3` [Compound 128]: the 50% effective concentration (EC50) (with SDH-WT cells; in test [1]) was 3 to 10 µM in each case.

For `COc1ccc(CCNc2ncnc3c2sc2nc4c(cc23)COC(C)(C)C4)cc1` [Compound 129], the half-maximal effective concentration (EC50) was above 10 µM in the test on SDH-WT cells and below 1 µM in test [1].

Regarding `COC(=O)c1ccc(CCNc2ncnc3c2sc2nc4c(cc23)COC(C)(C)C4)cc1` [Compound 130], the EC50 (with SDH-WT cells; in test [1]) was above 10 µM throughout.

Turning to `CC1(C)Cc2nc3sc4c(NCCc5ccc6c(c5)OCCO6)ncnc4c3cc2CO1` [Compound 131], the EC50 (in the test on SDH-WT cells; in test [1]) was above 10 µM in each case.

As for `COc1ccc(Nc2ncnc3c2sc2nc4c(cc23)COC(C)(C)C4)cc1OC` [Compound 132], the EC50 (in the test on SDH-WT cells; in test [1]) was above 10 µM each time.

Turning to `CC1(C)Cc2nc3sc4c(NCCc5ccccn5)ncnc4c3cc2CO1` [Compound 133], the values for the 50% effective concentration (EC50) (with SDH-WT cells; in test [1]) were above 10 µM and 3 to 10 µM, respectively.

Take `CC(C)Nc1ncnc2c1sc1nc3c(cc12)COC(C)(C)C3` [Compound 134]: the EC50 (in the test on SDH-WT cells; in test [1]) was above 10 µM each time.

`CC1(C)Cc2nc3sc4c(NCc5ccccc5)ncnc4c3cc2CO1` [Compound 135]: the EC50 (in the test on SDH-WT cells; in test [1]) was above 10 µM throughout.

In the case of `CC1(C)Cc2nc3sc4c(N5CCNCC5)ncnc4c3cc2CO1` [Compound 136], the 50% effective concentration (EC50) (in the test on SDH-WT cells; in test [1]) was above 10 µM throughout.

In the case of `CC1(C)Cc2nc3sc4c(N5CCOCC5)ncnc4c3cc2CO1` [Compound 137], the EC50 (with SDH-WT cells; in test [1]) was above 10 µM throughout.

For `CC1(C)Cc2nc3sc4c(N5CCCCC5)ncnc4c3cc2CO1` [Compound 138], the half-maximal effective concentration (EC50) (with SDH-WT cells; in test [1]) was above 10 µM throughout.

For `CC1(C)Cc2nc3sc4c(NCCc5ccc(O)c(F)c5)ncnc4c3cc2CO1` [Compound 140], the EC50 lay within 3 to 10 µM in the test on SDH-WT cells and 1 to 3 µM in test [1].

Consider `CC1(C)Cc2nc3sc4c(NCCc5ccc(NC(N)=O)cc5)ncnc4c3cc2CO1` [Compound 141], for which the EC50 is above 10 µM in the test with SDH-WT cells and below 1 µM in test [1].

As for `CNC(=O)c1ccc(CCNc2ncnc3c2sc2nc4c(cc23)COC(C)(C)C4)cc1` [Compound 142], the concentration giving a half-maximal response (EC50) in the test with SDH-WT cells is 3 to 10 µM; in test [1], below 1 µM.

As for `CC1(C)Cc2nc3sc4c(NCCc5ccc(OC(N)=O)cc5)ncnc4c3cc2CO1` [Compound 143], the figures for the EC50 (with SDH-WT cells; in test [1]) were above 10 µM and below 1 µM, respectively.

In the case of `CC1(C)Cc2nc3sc4c(NCCc5ccc(C(N)=O)cc5)ncnc4c3cc2CO1` [Compound 144], the values for the EC50 (in the test with SDH-WT cells; in test [1]) were above 10 µM and below 1 µM, respectively.

Consider `CN(c1ccc(CCNc2ncnc3c2sc2nc4c(cc23)COC(C)(C)C4)cc1)S(C)(=O)=O` [Compound 146], for which the EC50 in the test on SDH-WT cells is above 10 µM; in test [1], 3 to 10 µM.

As a reminder, the EC50 is the concentration at which the effect is half-maximal.
